Measurements: US20230053688A1, “METHODS TO ALTER LATENCY IN EBV+ MALIGNANCIES” (Cornell University, priority 2020, published 2023)
Where two headings read alike, the source gives them in different places.

How the values were obtained:
[1] = test system: BL cells; assay: Cell viability, CellTiter-Glo, statements for the BL cell panel
Method: (§5) Cell viability was determined using CellTiter-Glo (Promega) and the GloMax® Multi+ detection system (Promega).
(§6) Cell viability was determined using an ATP based luminescent assay (CellTiter-Glo, Promega) and the GloMax® Multi+ detection system (Promega). IC50 values were calculated using Prism 6 software.
(§7) To determine if induction of LMP1 and EBNA3 were linked to hypomethylating agent-induced cell death, cells were exposed to decitabine or 5-azacytadine over a range of doses and cell viability evaluated with the ATP-based Cell Titer-Glo® assay.

[2] = test system: EBNA2 and LMP1 in Mutu I, Kem I, and Rael cells; assay: Immunohistochemistry on cell blocks, statement across the three cell lines; format: cell-based, EBV; conditions: 5-Aza at 4 uM, 48 hours, compared with decitabine
Method: (§1) Cell blocks were generated from cell lines in suspension by fixation in 10% formalin. Immunohistochemistry on cell blocks and mouse tumors was performed with the following antibodies: EBNA2 (abcam #ab90543), LMP1 (Dako #M0897), BZLF1 (Santa Cruz #SC-53904), CD8 (Leica #PA0183), PD-1 (Dako #M3653), PD-L1 (Cell Marque #315M-98). The Halo® image analysis software program (Indica Labs) was used to quantify immunohistochemical stains.
(§2) Next it was determined the percentage of cells that convert to expressing latency […] antigens after treatment with decitabine or 5-azacytadine. To do this, EBV antigen expression at the single-cell level was evaluated by immunohistochemistry (IHC) from cell blocks. Cells were treated with 5-azacytidine, decitabine, or vehicle control. Cell blocks were then evaluated by IHC for LMP1 and EBNA2. The percentage of positive cells was quantified with HALO image analysis. […] 5-azacytidine induced a more modest expression of EBNA2 and LMP1 across the three cell lines (FIGS. 2E-F). Based on these observations, decitabine was further investigated as a potential agent to induce expression of immunogenic viral antigens in latency I tumors.

[3] = test system: Kem I; assay: Cell viability, CellTiter-Glo; conditions: 48 h, read-out: 48 Hour IC50
Method: as §5, §6, §7

[4] = test system: Mutu I; assay: Cell viability, CellTiter-Glo; conditions: read-out: 48 Hour IC50
Method: as §5, §6, §7

[5] = test system: LMP1 and EBNA3C proteins in BL cells; assay: Immunoblot for viral proteins in BL cells; format: cell-based, EBV; conditions: 48 hours
Method: Immunoblot was performed with the standard procedure using the following antibodies: β-actin (GeneTex), BZLF1 (Santa Cruz), EBNA1 (Santa Cruz), EBNA2 (AbCam), EBNA3C (gift from Benjamin Gewurz), GAPDH (GeneTex), and LMP1 (AbCam).
Since decitabine and 5-azacytadine were the top hits on the epigenetic screen, the effect of these agents on latency II/III transcript and protein expression was investigated as well as the dose-response in a panel of BL cell lines. BL cells were treated with decitabine or 5-azacytidine over a range of doses. Viral antigen expression was evaluated by qRT-PCR, immunoblot, and immunohistochemistry. […] This was associated with upregulation of LMP1 and EBNA3C proteins (FIG. 2B).

[6] = test system: LMP1 and Cp transcripts in Kem I, Mutu I, and Rael cell lines; format: cell-based, EBV
[7] = test system: LMP1 expression in Kem I cells; assay: microbe, parasite or virus in culture; format: cell-based, EBV; conditions: human gammaherpesvirus 4, 48 h
[8] = test system: Rael; assay: Cell viability, CellTiter-Glo; conditions: read-out: 48 Hour IC50
Method: as §5, §6, §7

[9] = in vitro; conditions: human, Mutu I cells
Method: as §5, §6, §7

[10] = test system: EBV genome in Kem I, Rael, and Mutu I cells; assay: Quantitative DNA methylation analysis using MassARRAY EpiTYPER; format: cell-based; conditions: 48 hours, all three latency I cell lines, including Cp promoter and LMP1/2 loci
[11] = test system: EBNA2 and LMP1 in Rael cells; assay: Immunohistochemistry on cell blocks with HALO quantification; format: cell-based, EBV; conditions: decitabine at 500 nM, 48 hours
Method: as §1, §2

[12] = test system: EBNA2 and LMP1 in Kem I cells; assay: as above; format: cell-based, EBV; conditions: decitabine at 500 nM, 48 hours
Method: as §1, §2

[13] = test system: EBNA2 and LMP1 in Mutu I cells; assay: as above; format: cell-based, EBV; conditions: decitabine at 500 nM, 48 hours
Method: as §1, §2

[14] = test system: Rael xenografts; assay: BL xenograft, immunohistochemistry of tumors for viral antigens; format: in vivo, mice
Method: as §1
(§3) To evaluate the effect of decitabine on viral antigen expression in-vivo, we generated Mutu I, Kem I, and Rael xenografts. Upon engraftment, mice were treated with a 7-day course of decitabine (0.5 mg/kg or 1 mg/kg daily) or vehicle control. After treatment tumors were evaluated by immunohistochemistry. Vehicle treated mice had minimal or no expression of EBNA2 and LMP1 (FIGS. 3A-B). […] LMP1 expression was increased in Kem xenografts (p=0.04, FIG. 3B).
If induction of immunogenic antigens were to be used as therapeutic approach in EBV+ lymphomas, it would be important to ensure that the induction persists after removal of drug to allow time for an adequate T-cell response. The durability of latency III induction was evaluated by treating cell lines with 250 nM of decitabine for 3 days and then evaluating LMP1 and Cp promoter expression after washout of the drug. […] Rael xenografts were also evaluated for durability of induction in-vivo. […] Mice observed at later timepoints continued to express EBNA2 with some areas of tumor remaining EBNA2 positive as late as 63 days post-treatment (FIG. 4C).
In addition to modulating latent gene expression, 5-azacytidine is known to activate lytic programming in EBV (Bhende, Seaman et al. 2004, Chan, Tao et al. 2004, Bergbauer, Kalla et al. 2010, Kalla, Gobel et al. 2012, Woellmer, Arteaga-Salas et al. 2012).

[15] = test system: Mutu I xenografts; assay: as above; format: in vivo, mice
Method: as §1, §3
(§4) In addition to modulating latent gene expression, 5-azacytidine is known to activate lytic programming in EBV (Bhende, Seaman et al. 2004, Chan, Tao et al. 2004, Bergbauer, Kalla et al. 2010, Kalla, Gobel et al. 2012, Woellmer, Arteaga-Salas et al. 2012). Upon exposure to 5-azacytidine, the Rael cell line generates lytic and latent antigens but in distinct cell populations (Masucci, Contreras-Salazar et al. 1989). To determine if the lytic program was being activated after exposure to decitabine qRT-PCR was performed for BZLF1, the gene responsible for activating early lytic genes in Rael, Mutu I, and Kem I cells. […] In the xenograft models, BLZF1 was evaluated by IHC.

[16] = test system: Kem I xenografts; assay: as above; format: in vivo, mice
Method: as §1, §3, §4

[17] = Cell viability, CellTiter-Glo; conditions: human, Kem I cells
Method: as §5, §6, §7

[18] = test system: first 13 kB of the EBV genome in Kem I, Rael, and Mutu I cells; assay: Methyl-Capture sequencing of cell lines; format: cell-based
[19] = in vitro; conditions: human, Rael cells
Method: as §5, §6, §7

[20] = test system: Mutu I cells; assay: Cr51 release assay with EBV-CTLs; format: cell-based; conditions: Mutu I cells treated at 250 nM for 72 hours, 25:1 effector to target ratio
[21] = test system: Rael cells; assay: Cr51 release assay with EBV-CTLs; format: cell-based; conditions: Rael cells treated at 250 nM for 72 hours, 25:1 effector to target ratio
[22] = test system: BZLF1 in Rael, Mutu I, and Kem I cells; assay: qRT-PCR for BZLF1 (lytic induction); format: cell-based, EBV; conditions: all three cell lines
[23] = test system: subcutaneous xenografts of Rael cells; format: in vivo, NSG mice

Compound: Nc1ncn([C@@H]2O[C@H](CO)[C@@H](O)[C@H]2O)c(=O)n1 [5-azacytidine]
- IC50 [1]: ≥ 2.2 µM
- change in cell viability ([1]; at the optimal dose for induction): minimal change
- expression of EBNA2 and LMP1 (IHC) [2]: more modest
- IC50 [3]: > 5 µM
- IC50 [4]: 4 µM
- LMP1 and EBNA3C proteins (immunoblot) [5]: not associated with significant induction
- optimal dose for induction ([6]; BL cells): 1 to 4 µM
- induction of LMP1 and Cp ([6]; at doses <1 μM, 48 hours): minimal
- fold induction at 1 µM ([7]; read-out: Average LMP1 Fold Increase, Kem I cells, 1 uM, 48 hours, average of replicates 1 and 2): 4.1
- fold induction at 1 µM ([7]; read-out: Replicate 1-LMP1 Fold Increase, Kem I cells, 1 uM, 48 hours, fold change in LMP1 transcript vs vehicle): 5.77
- fold induction at 1 µM ([7]; read-out: Replicate 2-LMP1 Fold Increase, Kem I cells, 1 uM, 48 hours, fold change in LMP1 transcript vs vehicle): 2.43
- IC50 [8]: 2.2 µM

Compound: Nc1ncn([C@H]2C[C@H](O)[C@@H](CO)O2)c(=O)n1 [decitabine, 5-aza-2′-deoxycytidine]
- viability [9]: 62%
- DNA methylation across the EBV viral genome (MassARRAY) [10]: loss of methylation
- percentage of EBNA2 positive cells [11]: 37.2%
- percentage of LMP1 positive cells [11]: 27.4%
- percentage of EBNA2 positive cells [12]: 57.8%
- percentage of LMP1 positive cells [12]: 54.9%
- percentage of EBNA2 positive cells [13]: 28.3%
- percentage of LMP1 positive cells [13]: 41.8%
- IC50 [1]: > 5 µM
- EBNA2 expression in tumors (IHC) ([14]; 7-day course, 0.5 mg/kg or 1 mg/kg daily IP, p=0.017): upregulation was observed
- BZLF1 by IHC in tumors ([14]; Rael xenograft, 7 days of treatment): minimal or no induction
- latest time with areas of tumor remaining EBNA2 positive ([14]; post-treatment): 63 days
- percentage of EBNA2 positive cells after discontinuation of drug ([14]; tumors evaluated 4 days after a 7-day course): persistent induction with no decrement
- EBNA2 expression in tumors (IHC) ([15]; 7-day course, 0.5 mg/kg or 1 mg/kg daily IP, p=0.044): upregulation was observed
- BZLF1 by IHC in tumors ([15]; Mutu I xenograft, 7 days of treatment): induction was observed
- LMP1 expression in tumors (IHC) ([16]; 7-day course, 0.5 mg/kg or 1 mg/kg daily IP, p=0.04): increased
- BZLF1 by IHC in tumors ([16]; Kem I xenograft, 7 days of treatment): minimal or no induction
- IC50 [3]: > 5 µM
- viability [17]: 128%
- IC50 [4]: > 5 µM
- LMP1 and EBNA3C proteins (immunoblot) [5]: upregulation
- methylation across the covered areas (Methyl-Capture sequencing) ([18]; after treatment, all three cell lines): global hypomethylation
- methylation after removal of drug (Methyl-Capture sequencing) ([18]; drug 48 hours followed by 7-day washout): remained hypomethylated
- viability [19]: 102%
- LMP1 and Cp expression by qRT-PCR after washout ([6]; 250 nM for 3 days, then 1, 3, 5, and 7 days after washout): persists with minimal decrement
- lowest dose with dose dependent induction of LMP1 and Cp transcripts ([6]; BL cells, 48 hours of treatment): 25 nM
- % lysis by EBNA3A reactive EBV-CTLs [20]: 16.17%
- % lysis by LMP1-reactive EBV-CTLs [20]: 74.11%
- % lysis by EBNA3C reactive EBV-CTLs [21]: 26.07%
- BZLF1 (qRT-PCR) over time after removal of drug [22]: decreased over time after removal of drug
- BZLF1 (qRT-PCR) ([22]; after exposure for 72 hours): increase
- latent antigens EBNA2 and LMP1 in tumors ([23]; daily for 7 days, 1 mg/kg): induction
- lytic protein BZLF1 in tumors ([23]; daily for 7 days, 1 mg/kg): minimal change
- PD-L1 expression in tumors ([23]; mouse, in vivo): did not increase
- IC50 [8]: > 5 µM
